Laboratory results published in patent US20260069581A1, “METHODS AND COMPOSITIONS FOR CANCER THERAPY” (OHIO STATE INNOVATION FOUNDATION, priority 2020, published 2026).

What was measured:
[1] = tested on: IDH2-WT TF-1 cells; assay: Phospho-H2A.X (pS139) flow cytometry; assay type: cell-based; conditions: IDH2-WT TF-1, 48 hours, 0.8 μM AR-42, 0.1 μM KPT-9274
Experimental: (§1) Thereafter, cells were fixed, permeabilized and stained with BV421 mouse anti-H2A.X (pS139) (Clone N1-431). Stained cells were analyzed by flow cytometry. Results are shown as mean±SEM of duplicates. *p<0.05. N.S.: not significant. […] Results are shown as mean±SEM of duplicates. *p<0.05. […] MOLM13 cells were treated with vehicle control, 0.4 μM or 0.8 μM AR-42 alone, 0.1 μM or 0.25 μM KPT-2974 alone and drug combination for 24 hours before being subject to Western blotting analysis of HR, NHEJ and ATM markers. GAPDH served as loading control. Results are representative of two independent experiments. In the FIG. the treatment concentrations, protein detected in the given Western blot, and molecular weight of the protein detected are as shown in the figure. […] Scrambled or shHDAC8-transduced MOLM13 cells were treated with vehicle, 0.1 μM or 0.25 μM KPT-2974 before being subject to immunoblotting analysis of DNA repair targets. GAPDH serves as loading control. Results are representative of two independent experiments. In the FIG. the treatment concentrations, protein detected in the given Western blot, and molecular weight of the protein detected are as shown in the figure. […] PAPR1 was immunoprecipitated and mono-ADP-ribosylation was detected by western blotting. Results are representative of two independent experiments. […]

[2] = tested on: MOLM13 cells; assay: Western blotting of HR, NHEJ and ATM markers; assay type: cell-based, human
Experimental: as §1

[3] = tested on: MOLM13 cells; assay: MTS cell viability of shRNA-stable or sgRNA-transfected MOLM13 cells treated with KPT-9274; assay type: cell-based, human; conditions: MOLM13, 48-hour treatment
Experimental: FIGS. 7A-7B show representative data for knockdown of selected genes has modest effects on MOLM13 responses to KPT-9274 treatment. […] For the graphs in FIGS. 7A-7B, the responses of parental, shRNA-stable and sgRNA-transfected MOLM13 cells to KPT-9274 treatment (48-hour treatments) are plotted. Cell viability was measured with MTS (y-axis). Results are shown as mean±SEM of 4 technical replicates and 3 biological replicates. Western blotting for knockdown efficiency is shown.
MTS assay. For MTS assays, AML cell lines or patient-derived cells were treated in a 96-well plate at 1-6×10^5 cells per well for 24-72 hours. Patient-derived CD34^+ primary cells were cultured in 96-well plates coated with collagen in the presence of 10 ng/ml IL-3, 10 ng/ml IL-6, 10 ng/ml SCF and 10 ng/ml GM-CSF. Cells were treated with increasing concentrations of KPT-9274 (0 nM to 10 μM) or vehicle control (dimethyl sulfoxide [DMSO]). […] MTS [3-(4,5-dimethylthiazol-2-yl)-5-(3-carboxymethoxyphenyl)-2-(4-sulfophenyl)-2H-tetrazolium](Pro-mega, Madison, WI) was incubated with drug-treated cells according to the manufacturer's instructions. Plates were read by using a BioTek synergy H4 hybrid multimode microplate reader (Thermo Fisher Scientific) at 490 nM. […]

SMILES: CC(C)[C@H](C(=O)Nc1ccc(C(=O)NO)cc1)c1ccccc1 [AR-42, (S)—N-Hydroxy-4-(3-methyl-2-phenylbutanamido)benzamide]
- fluorescence intensity of phospho-H2A.X staining [1]: slightly increased
- levels of HR components CtIP, Rad51, phosphorylated BRCA1 and phosphorylated ATM ([2]; 0.4 μM and 0.8 μM AR-42, monotherapy or with KPT-9274, 24 hours): significantly reduced

SMILES: Nc1ccc(/C=C/C(=O)NCc2cc3cc(-c4ccc(C(=O)N5CCC(F)(F)CC5)cc4)cc(-c4ccc(F)cc4)c3o2)cn1 [KPT-9274, (E)-3-(6-aminopyridin-3-yl)-N-[[5-[4-(4,4-difluoropiperidine-1-carbonyl)phenyl]-7-(4-fluorophenyl)-1-benzofuran-2-yl]methyl]prop-2-enamide]
- synergy of knockdown of IMPA2, HEXA, PTGS1 and DCPS with KPT-9274 treatment ([3]; MTS (FIG. 7A)): did not demonstrate strong synergies
- impact of depletion of HDAC1, HDAC3 or HDAC6 with CRISPR on KPT-9274 sensitivity ([3]; MTS (FIG. 7B)): did not have significant impact
- fluorescence intensity of phospho-H2A.X staining [1]: slightly increased
- abundance of D-NHEJ and ATM pathway mediators ([2]; shHDAC8-transduced MOLM13, 0.1 μM or 0.25 μM KPT-9274): synergistically downregulated
